Assay results published in article PMC3445516 (PLoS ONE, 2012).

Assays:
Test in all cases: Ambit kinase profiling, competition binding
AKT3 = biological target: T1, AKT3 (Homo sapiens, UniProt Q9Y243); settings: compound concentration 10 uM, read-out: Percent Competition
T1 construct: purchased Ambit Biosciences (KINOMEscan)
Source text: (§1) Supplement pone.0044653.s004.xls, sheet "Compound 122" | column: Percent Competition

PIK3CB = biological target: T2, PIK3CB (Homo sapiens, UniProt P42338); settings: compound concentration 10 uM, read-out: Percent Competition
T2 construct: purchased Ambit Biosciences (KINOMEscan)
Source text: as §1

PLK1 = biological target: T3, PLK1 (Homo sapiens, UniProt P53350); settings: compound concentration 10 uM, read-out: Percent Competition
T3 construct: purchased Ambit Biosciences (KINOMEscan)
Source text: as §1

STK33 = biological target: T4, STK33 (Homo sapiens, UniProt Q9BYT3); settings: compound concentration 10 uM, read-out: Percent Competition
T4 construct: purchased Ambit Biosciences (KINOMEscan)
Source text: as §1

CDC2L1 = biological target: T5, CDC2L1 (Homo sapiens, UniProt P21127); settings: compound concentration 10 uM, read-out: Percent Competition
T5 construct: purchased Ambit Biosciences (KINOMEscan)
Source text: as §1

LKB1 = biological target: T6, LKB1 (Homo sapiens, UniProt Q15831); settings: compound concentration 10 uM, read-out: Percent Competition
T6 construct: purchased Ambit Biosciences (KINOMEscan)
Source text: as §1

[1] = biological target: T7, RPS6KA6(Kin.Dom.1-N-terminal) (Homo sapiens, UniProt Q9UK32); settings: compound concentration 10 uM
T7 construct: RPS6KA6(Kin.Dom.1-N-terminal); purchased Ambit Biosciences (KINOMEscan)
Source text: as §1

[2] = biological target: T8, RPS6KA5(Kin.Dom.1-N-terminal) (Homo sapiens, UniProt O75582); settings: compound concentration 10 uM, read-out: Percent Competition
T8 construct: RPS6KA5(Kin.Dom.1-N-terminal); purchased Ambit Biosciences (KINOMEscan)
Source text: as §1

ERK5 = biological target: T9, ERK5 (Homo sapiens, UniProt Q13164); settings: compound concentration 10 uM, read-out: Percent Competition
T9 construct: purchased Ambit Biosciences (KINOMEscan)
Source text: as §1

BMPR2 = biological target: T10, BMPR2 (Homo sapiens, UniProt Q13873); settings: compound concentration 10 uM
T10 construct: purchased Ambit Biosciences (KINOMEscan)
Source text: as §1

CAMKK1 = biological target: T11, CAMKK1 (Homo sapiens, UniProt Q8N5S9); settings: compound concentration 10 uM, read-out: Percent Competition
T11 construct: purchased Ambit Biosciences (KINOMEscan)
Source text: as §1

PRKX = biological target: T12, PRKX (Homo sapiens, UniProt P51817); settings: compound concentration 10 uM, read-out: Percent Competition
T12 construct: purchased Ambit Biosciences (KINOMEscan)
Source text: as §1

EPHB2 = biological target: T13, EPHB2 (Homo sapiens, UniProt P29323); settings: compound concentration 10 uM
T13 construct: purchased Ambit Biosciences (KINOMEscan)
Source text: as §1

[3] = biological target: T14, RPS6KA3(Kin.Dom.1-N-terminal) (Homo sapiens, UniProt P51812); settings: compound concentration 10 uM, read-out: Percent Competition
T14 construct: RPS6KA3(Kin.Dom.1-N-terminal); purchased Ambit Biosciences (KINOMEscan)
Source text: as §1

LIMK1 = biological target: T15, LIMK1 (Homo sapiens, UniProt P53667); settings: compound concentration 10 uM, read-out: Percent Competition
T15 construct: purchased Ambit Biosciences (KINOMEscan)
Source text: as §1

ANKK1 = biological target: T16, ANKK1 (Homo sapiens, UniProt Q8NFD2); settings: compound concentration 10 uM, read-out: Percent Competition
T16 construct: purchased Ambit Biosciences (KINOMEscan)
Source text: as §1

PAK6 = biological target: T17, PAK6 (Homo sapiens, UniProt Q9NQU5); settings: compound concentration 10 uM, read-out: Percent Competition
T17 construct: purchased Ambit Biosciences (KINOMEscan)
Source text: as §1

ZAK = biological target: T18, ZAK (Homo sapiens, UniProt Q9NYL2); settings: compound concentration 10 uM, read-out: Percent Competition
T18 construct: purchased Ambit Biosciences (KINOMEscan)
Source text: as §1

HIPK1 = biological target: T19, HIPK1 (Homo sapiens, UniProt Q86Z02); settings: compound concentration 10 uM, read-out: Percent Competition
T19 construct: purchased Ambit Biosciences (KINOMEscan)
Source text: as §1

MAPKAPK2 = biological target: T20, MAPKAPK2 (Homo sapiens, UniProt P49137); settings: compound concentration 10 uM, read-out: Percent Competition
T20 construct: purchased Ambit Biosciences (KINOMEscan)
Source text: as §1

BMX = biological target: T21, BMX (Homo sapiens, UniProt P51813); settings: compound concentration 10 uM, read-out: Percent Competition
T21 construct: purchased Ambit Biosciences (KINOMEscan)
Source text: as §1

ABL1(T315I) = biological target: T22, ABL1(T315I) (Homo sapiens, UniProt P00519, T315I); settings: compound concentration 10 uM, read-out: Percent Competition
T22 construct: purchased Ambit Biosciences (KINOMEscan)
Source text: as §1

NEK5 = biological target: T23, NEK5 (Homo sapiens, UniProt Q6P3R8); settings: compound concentration 10 uM, read-out: Percent Competition
T23 construct: purchased Ambit Biosciences (KINOMEscan)
Source text: as §1

PKMYT1 = biological target: T24, PKMYT1 (Homo sapiens, UniProt Q99640); settings: compound concentration 10 uM
T24 construct: purchased Ambit Biosciences (KINOMEscan)
Source text: as §1

MAP3K3 = biological target: T25, MAP3K3 (Homo sapiens, UniProt Q99759); settings: compound concentration 10 uM, read-out: Percent Competition
T25 construct: purchased Ambit Biosciences (KINOMEscan)
Source text: as §1

TRKB = biological target: T26, TRKB (Homo sapiens, UniProt Q16620); settings: compound concentration 10 uM, read-out: Percent Competition
T26 construct: purchased Ambit Biosciences (KINOMEscan)
Source text: as §1

MEK2 = biological target: T27, MEK2 (Homo sapiens, UniProt P36507); settings: compound concentration 10 uM, read-out: Percent Competition
T27 construct: purchased Ambit Biosciences (KINOMEscan)
Source text: as §1

MARK3 = biological target: T28, MARK3 (Homo sapiens, UniProt P27448); settings: compound concentration 10 uM, read-out: Percent Competition
T28 construct: purchased Ambit Biosciences (KINOMEscan)
Source text: as §1

FGR = biological target: T29, FGR (Homo sapiens, UniProt P09769); settings: compound concentration 10 uM, read-out: Percent Competition
T29 construct: purchased Ambit Biosciences (KINOMEscan)
Source text: as §1

ULK2 = biological target: T30, ULK2 (Homo sapiens, UniProt Q8IYT8); settings: compound concentration 10 uM, read-out: Percent Competition
T30 construct: purchased Ambit Biosciences (KINOMEscan)
Source text: as §1

CDK9 = biological target: T31, CDK9 (Homo sapiens, UniProt P50750); settings: compound concentration 10 uM, read-out: Percent Competition
T31 construct: purchased Ambit Biosciences (KINOMEscan)
Source text: as §1

RIPK1 = biological target: T32, RIPK1 (Homo sapiens, UniProt Q13546); settings: compound concentration 10 uM, read-out: Percent Competition
T32 construct: purchased Ambit Biosciences (KINOMEscan)
Source text: as §1

PRKG2 = biological target: T33, PRKG2 (Homo sapiens, UniProt Q13237); settings: compound concentration 10 uM, read-out: Percent Competition
T33 construct: purchased Ambit Biosciences (KINOMEscan)
Source text: as §1

NDR2 = biological target: T34, NDR2 (Homo sapiens, UniProt Q9Y2H1); settings: compound concentration 10 uM, read-out: Percent Competition
T34 construct: purchased Ambit Biosciences (KINOMEscan)
Source text: as §1

MAP4K5 = biological target: T35, MAP4K5 (Homo sapiens, UniProt Q9Y4K4); settings: compound concentration 10 uM, read-out: Percent Competition
T35 construct: purchased Ambit Biosciences (KINOMEscan)
Source text: as §1

NEK6 = biological target: T36, NEK6 (Homo sapiens, UniProt Q9HC98); settings: compound concentration 10 uM, read-out: Percent Competition
T36 construct: purchased Ambit Biosciences (KINOMEscan)
Source text: as §1

RET(V804M) = biological target: T37, RET(V804M) (Homo sapiens, UniProt P07949, V804M); settings: compound concentration 10 uM, read-out: Percent Competition
T37 construct: purchased Ambit Biosciences (KINOMEscan)
Source text: as §1

TRKA = biological target: T38, TRKA (Homo sapiens, UniProt P04629); settings: compound concentration 10 uM, read-out: Percent Competition
T38 construct: purchased Ambit Biosciences (KINOMEscan)
Source text: as §1

MYLK = biological target: T39, MYLK (Homo sapiens, UniProt Q15746); settings: compound concentration 10 uM, read-out: Percent Competition
T39 construct: purchased Ambit Biosciences (KINOMEscan)
Source text: as §1

EPHA4 = biological target: T40, EPHA4 (Homo sapiens, UniProt P54764); settings: compound concentration 10 uM, read-out: Percent Competition
T40 construct: purchased Ambit Biosciences (KINOMEscan)
Source text: as §1

T24 sequence (Q99640 whole entry): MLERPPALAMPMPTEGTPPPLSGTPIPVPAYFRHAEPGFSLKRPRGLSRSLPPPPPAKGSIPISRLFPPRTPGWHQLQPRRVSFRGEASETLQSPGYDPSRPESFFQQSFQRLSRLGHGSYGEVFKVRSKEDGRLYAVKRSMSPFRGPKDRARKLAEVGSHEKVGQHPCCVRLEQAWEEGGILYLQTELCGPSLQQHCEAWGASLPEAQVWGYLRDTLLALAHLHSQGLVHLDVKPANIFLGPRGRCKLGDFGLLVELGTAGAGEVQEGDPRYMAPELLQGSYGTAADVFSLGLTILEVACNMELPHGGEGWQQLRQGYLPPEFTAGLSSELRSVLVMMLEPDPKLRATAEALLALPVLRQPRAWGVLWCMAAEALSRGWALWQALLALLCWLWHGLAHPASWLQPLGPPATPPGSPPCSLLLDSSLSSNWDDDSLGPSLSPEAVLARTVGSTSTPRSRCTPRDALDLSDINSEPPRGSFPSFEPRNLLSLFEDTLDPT
T16 sequence (Q8NFD2 whole entry): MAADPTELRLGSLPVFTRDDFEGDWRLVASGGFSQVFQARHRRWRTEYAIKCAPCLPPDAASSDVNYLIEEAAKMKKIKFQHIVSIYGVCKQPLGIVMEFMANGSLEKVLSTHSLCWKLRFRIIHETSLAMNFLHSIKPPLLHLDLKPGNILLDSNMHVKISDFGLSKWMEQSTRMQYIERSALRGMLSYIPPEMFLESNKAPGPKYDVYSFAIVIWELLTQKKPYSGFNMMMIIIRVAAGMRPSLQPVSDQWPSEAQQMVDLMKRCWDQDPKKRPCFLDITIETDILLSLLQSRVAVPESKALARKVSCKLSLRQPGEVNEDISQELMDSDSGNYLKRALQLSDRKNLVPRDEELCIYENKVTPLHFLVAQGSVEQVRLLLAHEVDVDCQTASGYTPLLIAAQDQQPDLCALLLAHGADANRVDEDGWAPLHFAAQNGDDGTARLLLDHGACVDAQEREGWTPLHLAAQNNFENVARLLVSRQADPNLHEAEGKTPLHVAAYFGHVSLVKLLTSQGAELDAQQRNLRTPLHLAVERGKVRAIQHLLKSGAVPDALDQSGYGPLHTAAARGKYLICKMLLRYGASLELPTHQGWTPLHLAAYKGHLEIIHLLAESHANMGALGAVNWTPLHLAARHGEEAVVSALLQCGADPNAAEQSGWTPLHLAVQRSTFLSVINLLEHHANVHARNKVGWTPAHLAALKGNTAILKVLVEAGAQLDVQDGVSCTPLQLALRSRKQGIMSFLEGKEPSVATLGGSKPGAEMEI
T13 sequence (P29323 19-1055): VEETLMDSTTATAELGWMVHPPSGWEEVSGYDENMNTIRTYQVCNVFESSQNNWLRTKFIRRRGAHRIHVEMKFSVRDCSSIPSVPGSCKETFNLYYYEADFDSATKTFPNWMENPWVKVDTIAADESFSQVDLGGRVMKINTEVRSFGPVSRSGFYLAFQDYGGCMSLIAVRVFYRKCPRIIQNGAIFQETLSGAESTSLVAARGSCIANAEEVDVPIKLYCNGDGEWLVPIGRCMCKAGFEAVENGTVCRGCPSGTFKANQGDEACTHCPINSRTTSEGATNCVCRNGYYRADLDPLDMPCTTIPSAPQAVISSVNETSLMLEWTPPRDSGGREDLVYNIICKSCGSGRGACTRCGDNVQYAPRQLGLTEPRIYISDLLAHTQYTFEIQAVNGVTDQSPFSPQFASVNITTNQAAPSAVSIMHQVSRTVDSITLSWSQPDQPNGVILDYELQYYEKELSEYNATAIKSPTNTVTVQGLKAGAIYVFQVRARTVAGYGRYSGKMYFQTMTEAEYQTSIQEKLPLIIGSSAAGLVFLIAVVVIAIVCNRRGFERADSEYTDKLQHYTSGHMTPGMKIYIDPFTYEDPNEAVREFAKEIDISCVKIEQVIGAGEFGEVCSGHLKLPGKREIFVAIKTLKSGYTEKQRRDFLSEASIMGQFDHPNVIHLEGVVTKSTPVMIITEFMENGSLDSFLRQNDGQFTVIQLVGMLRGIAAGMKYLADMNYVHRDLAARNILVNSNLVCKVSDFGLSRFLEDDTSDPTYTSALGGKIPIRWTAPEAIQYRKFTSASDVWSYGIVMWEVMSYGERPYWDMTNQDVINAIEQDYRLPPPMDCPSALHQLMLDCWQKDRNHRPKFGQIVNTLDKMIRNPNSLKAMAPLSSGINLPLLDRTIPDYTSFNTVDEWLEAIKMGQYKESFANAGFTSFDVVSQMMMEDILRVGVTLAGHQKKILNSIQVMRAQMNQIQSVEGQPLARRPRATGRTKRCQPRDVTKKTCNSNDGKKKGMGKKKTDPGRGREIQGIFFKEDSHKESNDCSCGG
T17 sequence (Q9NQU5 whole entry): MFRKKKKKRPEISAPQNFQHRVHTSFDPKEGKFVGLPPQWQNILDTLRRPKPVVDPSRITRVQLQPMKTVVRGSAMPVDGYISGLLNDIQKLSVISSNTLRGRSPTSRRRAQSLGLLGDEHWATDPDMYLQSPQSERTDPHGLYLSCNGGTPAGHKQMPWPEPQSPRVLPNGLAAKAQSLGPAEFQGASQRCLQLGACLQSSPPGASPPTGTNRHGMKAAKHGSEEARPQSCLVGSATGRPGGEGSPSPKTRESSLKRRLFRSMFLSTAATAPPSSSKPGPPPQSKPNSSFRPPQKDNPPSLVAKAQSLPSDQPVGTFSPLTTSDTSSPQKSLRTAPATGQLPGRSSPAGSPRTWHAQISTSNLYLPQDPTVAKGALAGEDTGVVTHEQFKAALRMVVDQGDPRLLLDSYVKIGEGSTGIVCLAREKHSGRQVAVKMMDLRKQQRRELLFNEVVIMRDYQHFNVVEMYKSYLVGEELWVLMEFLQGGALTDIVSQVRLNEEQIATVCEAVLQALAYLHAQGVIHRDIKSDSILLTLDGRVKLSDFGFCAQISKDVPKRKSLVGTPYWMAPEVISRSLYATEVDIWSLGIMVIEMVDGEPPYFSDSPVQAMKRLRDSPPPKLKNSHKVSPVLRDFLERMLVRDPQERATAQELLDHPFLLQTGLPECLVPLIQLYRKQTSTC
T8 sequence (O75582 1-387 limits assumed): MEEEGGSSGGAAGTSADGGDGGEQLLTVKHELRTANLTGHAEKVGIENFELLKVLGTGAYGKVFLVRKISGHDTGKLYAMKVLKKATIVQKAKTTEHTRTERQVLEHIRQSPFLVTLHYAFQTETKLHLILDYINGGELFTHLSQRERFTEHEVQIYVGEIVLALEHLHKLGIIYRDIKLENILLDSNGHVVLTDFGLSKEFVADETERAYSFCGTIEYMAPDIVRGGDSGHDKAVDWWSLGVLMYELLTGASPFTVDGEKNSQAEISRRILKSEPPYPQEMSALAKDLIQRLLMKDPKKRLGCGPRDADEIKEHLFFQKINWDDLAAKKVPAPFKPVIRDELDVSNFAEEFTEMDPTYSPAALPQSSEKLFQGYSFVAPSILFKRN
T9 sequence (Q13164 whole entry): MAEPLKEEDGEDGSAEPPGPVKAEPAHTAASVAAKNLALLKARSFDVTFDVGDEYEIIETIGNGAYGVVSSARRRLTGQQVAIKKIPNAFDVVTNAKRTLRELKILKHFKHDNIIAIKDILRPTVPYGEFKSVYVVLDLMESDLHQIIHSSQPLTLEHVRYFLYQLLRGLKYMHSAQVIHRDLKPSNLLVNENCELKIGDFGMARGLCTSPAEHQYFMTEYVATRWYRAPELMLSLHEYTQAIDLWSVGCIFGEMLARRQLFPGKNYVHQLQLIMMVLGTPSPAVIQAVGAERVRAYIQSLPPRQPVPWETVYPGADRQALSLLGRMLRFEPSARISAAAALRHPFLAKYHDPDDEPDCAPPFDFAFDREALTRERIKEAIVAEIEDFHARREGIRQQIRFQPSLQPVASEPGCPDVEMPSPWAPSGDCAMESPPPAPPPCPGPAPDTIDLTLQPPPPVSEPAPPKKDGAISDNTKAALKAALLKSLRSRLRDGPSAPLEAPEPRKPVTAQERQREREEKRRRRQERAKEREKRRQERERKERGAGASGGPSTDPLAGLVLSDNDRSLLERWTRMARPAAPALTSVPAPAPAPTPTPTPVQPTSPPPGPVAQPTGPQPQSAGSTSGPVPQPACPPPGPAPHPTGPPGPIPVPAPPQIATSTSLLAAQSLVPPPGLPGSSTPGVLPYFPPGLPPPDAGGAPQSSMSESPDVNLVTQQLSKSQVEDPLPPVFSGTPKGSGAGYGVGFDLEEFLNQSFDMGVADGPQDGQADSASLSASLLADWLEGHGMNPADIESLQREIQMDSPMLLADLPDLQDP
T7 sequence (Q9UK32 1-400 limits assumed): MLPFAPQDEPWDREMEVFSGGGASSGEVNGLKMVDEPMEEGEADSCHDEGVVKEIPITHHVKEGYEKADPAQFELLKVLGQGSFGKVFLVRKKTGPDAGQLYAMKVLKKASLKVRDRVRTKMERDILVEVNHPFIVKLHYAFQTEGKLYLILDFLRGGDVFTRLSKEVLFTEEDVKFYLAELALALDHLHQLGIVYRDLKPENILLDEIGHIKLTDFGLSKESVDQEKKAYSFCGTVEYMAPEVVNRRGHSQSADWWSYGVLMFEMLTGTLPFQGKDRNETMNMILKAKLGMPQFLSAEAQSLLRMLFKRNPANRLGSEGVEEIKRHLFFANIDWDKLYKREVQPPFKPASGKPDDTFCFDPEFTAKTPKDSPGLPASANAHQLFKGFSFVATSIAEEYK
T31 sequence (P50750 whole entry): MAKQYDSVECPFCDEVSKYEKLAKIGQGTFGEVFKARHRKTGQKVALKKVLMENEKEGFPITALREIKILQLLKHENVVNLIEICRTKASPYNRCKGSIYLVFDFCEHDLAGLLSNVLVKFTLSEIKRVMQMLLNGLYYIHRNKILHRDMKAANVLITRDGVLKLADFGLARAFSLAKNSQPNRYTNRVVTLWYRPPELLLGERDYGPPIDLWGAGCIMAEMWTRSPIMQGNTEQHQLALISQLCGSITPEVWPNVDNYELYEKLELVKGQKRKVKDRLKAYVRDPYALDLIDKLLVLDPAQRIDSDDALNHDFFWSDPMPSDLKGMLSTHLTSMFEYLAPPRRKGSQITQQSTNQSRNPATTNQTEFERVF

For Fc1ccc(-c2c(-c3ccncc3)[nH]c3nccnc23)cc1 [RO1155697-000-005], which inhibition at 10 µM (AKT3) is on record?
The inhibition at 10 µM was under 50%.

What about the inhibition at 10 µM (PIK3CB) of the same molecule?
Its inhibition at 10 µM is under 50%.

And the inhibition at 10 µM (PLK1)?
Its inhibition at 10 µM is under 50%.

What about the inhibition at 10 µM (STK33) of the same molecule?
Its inhibition at 10 µM is under 50%.

And the inhibition at 10 µM (CDC2L1)?
Its inhibition at 10 µM is 91%.

What about the inhibition at 10 µM (LKB1) of the same molecule?
The inhibition at 10 µM was under 50%.

And the “Percent Competition” value [1]?
The value was under 50%.

What about the inhibition at 10 µM [2] of the same molecule?
The inhibition at 10 µM was under 50%.

What about the inhibition at 10 µM (ERK5) of the same molecule?
The inhibition at 10 µM was under 50%.

What about the “Percent Competition” value (BMPR2) of the same molecule?
Its value is under 50%.

What about the inhibition at 10 µM (CAMKK1) of the same molecule?
Its inhibition at 10 µM is under 50%.

And the inhibition at 10 µM (PRKX)?
The inhibition at 10 µM was under 50%.

What about the “Percent Competition” value (EPHB2) of the same molecule?
The value was under 50%.

And the inhibition at 10 µM [3]?
Its inhibition at 10 µM is under 50%.

What about the inhibition at 10 µM (LIMK1) of the same molecule?
The inhibition at 10 µM was under 50%.

What about the inhibition at 10 µM (ANKK1) of the same molecule?
Its inhibition at 10 µM is under 50%.

What about the inhibition at 10 µM (PAK6) of the same molecule?
The inhibition at 10 µM was under 50%.

And the inhibition at 10 µM (ZAK)?
The inhibition at 10 µM was under 50%.

What about the inhibition at 10 µM (HIPK1) of the same molecule?
Its inhibition at 10 µM is under 50%.

What about the inhibition at 10 µM (MAPKAPK2) of the same molecule?
The inhibition at 10 µM was under 50%.

And the inhibition at 10 µM (BMX)?
The inhibition at 10 µM was under 50%.

What about the inhibition at 10 µM (ABL1(T315I)) of the same molecule?
Its inhibition at 10 µM is under 50%.

What about the inhibition at 10 µM (NEK5) of the same molecule?
Its inhibition at 10 µM is under 50%.

And the “Percent Competition” value (PKMYT1)?
Its value is under 50%.

And the inhibition at 10 µM (MAP3K3)?
Its inhibition at 10 µM is under 50%.

What about the inhibition at 10 µM (TRKB) of the same molecule?
The inhibition at 10 µM was under 50%.

And the inhibition at 10 µM (MEK2)?
The inhibition at 10 µM was under 50%.

What about the inhibition at 10 µM (MARK3) of the same molecule?
The inhibition at 10 µM was under 50%.

And the inhibition at 10 µM (FGR)?
Its inhibition at 10 µM is under 50%.

And the inhibition at 10 µM (ULK2)?
The inhibition at 10 µM was under 50%.

And the inhibition at 10 µM (CDK9)?
The inhibition at 10 µM was under 50%.

And the inhibition at 10 µM (RIPK1)?
Its inhibition at 10 µM is under 50%.

And the inhibition at 10 µM (PRKG2)?
Its inhibition at 10 µM is under 50%.

What about the inhibition at 10 µM (NDR2) of the same molecule?
Its inhibition at 10 µM is under 50%.

What about the inhibition at 10 µM (MAP4K5) of the same molecule?
The inhibition at 10 µM was under 50%.

What about the inhibition at 10 µM (NEK6) of the same molecule?
Its inhibition at 10 µM is under 50%.

And the inhibition at 10 µM (RET(V804M))?
Its inhibition at 10 µM is under 50%.

And the inhibition at 10 µM (TRKA)?
Its inhibition at 10 µM is under 50%.

What about the inhibition at 10 µM (MYLK) of the same molecule?
Its inhibition at 10 µM is under 50%.

What about the inhibition at 10 µM (EPHA4) of the same molecule?
Its inhibition at 10 µM is under 50%.
